Results on three compounds are retold here after patent US20250101061A1, “UPREGULATION OF FERRITIN HEAVY CHAIN 1 EXPRESSION” (HBC Immunology Inc., priority 2022, published 2025).

The structures appear in SMILES notation. “And” between values parts separate entries of the source, which are not always exact repeats. Equal values may be shown once. Peptide text beside a SMILES is read from it.

Holding throughout (format): cell-based
Assay [1] concerns FTH1. Briefly: FTH1 gene expression in human skeletal muscle cells (HSkMC) by qRT-PCR. To be noted: for FTH1 Fold Change at 0.625 μM / FTH1 Fold Change at 1.25 μM / FTH1 Fold Change at 2.5 μM / FTH1 Fold Change at 5 μM / FTH1 Fold Change at 10 μM: average of triplicate (SD ≤ 0.3); for FTH1 Fold Change, Average / FTH1 Fold Change (individual runs): SPH 100 μM or synthetic oligopeptide 10 μM, about 12 hours; for FTH1 Fold Change (individual runs): triplicate runs. The protocol: A cell line derived from human skeletal muscle was selected to assess the effect of SPH and oligopeptides on gene expression. HSkMC (PCS-950-010) obtained from ATCC (Manassas, VA) were propagated in Mesenchymal Stem Cell Basal Medium (ATCC) reduced serum medium supplemented with Primary Skeletal Cell Muscle Growth Kit (ATCC) that contains L-Glutamine (10 mM), Dexamethasone ([…]), rh epidermal growth factor (5 ng/ml), rh FGF-b (5 ng/ml), rh Insulin (25 μg/mL), and fetal bovine serum (4%), on 100 mm cell culture dishes. For this assay, the HSkMC cells were seeded in 24 well plates at a cell density of 1×10^4 cells/cm^2 and maintained at 37° C. in a humidified 5% CO2 atmosphere. […]
Total RNA was extracted using the UPzol reagent for the cell pellets, followed by a DNAse treatment (DNAse TURBO), using the manufacturer's protocols. Complementary DNA (cDNA) was synthesized with the High Capacity cDNA Reverse Transcription Kit (Applied Biosystems) using random hexamers. Gene expression levels were measured by qRT-PCR.
1 μl of cDNA corresponding to 50 ng of reverse transcribed RNA was amplified by Qpcr (QuantStudio™ 6 Flex Real-Time PCR System), using the TaqMan™ Universal PCR Master Mix (Catalog No. 4304437) and a TaqMan™ assay (Roche Molecular Systems, Inc., Pleasanton, CA).
FTH1 gene expression was estimated relative to expression of the housekeeping gene, beta-actin (ACTB), following the standard formula: […]
2-ΔCt. TaqMan™ probe IDs used were: (i) FTH1, Hs01694011_s1; and (ii) ACTB, Hs01060665_g1. All experiments were run in triplicate.

In a further assay the test system is H-Ferritin. Briefly: H-Ferritin protein levels in mouse bone marrow-derived macrophages (ELISA). To be noted: murine macrophages; for H-Ferritin Protein Levels, Fe-Normal / H-Ferritin Protein Levels, DFO (−Fe) / H-Ferritin Protein Levels, Fe-NTA (+Fe): SPH 160 μM or oligopeptide 10 μM; for H-Ferritin Protein Levels, Fe-Normal: normal iron, average of triplicate; for H-Ferritin Protein Levels, DFO (−Fe): with DFO 100 μM 16 h; for H-Ferritin Protein Levels, Fe-NTA (+Fe): with Fe-NTA 8 h; for intracellular H-Ferritin protein levels: normal and iron-depleted conditions. As to the method:
(§1) Cell Cultures. MBMMs (C57BL/6 genetic background) were obtained from CellBiologics.net and prepared under the conditions recommended by the supplier. Isolated MBMMs were seeded onto 10 cm diameter Petri dishes and grown in RPMI-GlutaMAX™ medium (Invitrogen) supplemented with 10% heat-inactivated FCS (Gibco), 10% L-cell-conditioned medium (source of colony-stimulating factor 1), 2 mM L-glutamine, 50 U/mL penicillin, and […] streptomycin. At 4 days after seeding, the adherent MBMMs were rinsed twice with Hanks balance salt solution (HBSS), and the medium was renewed for 7 days, at which point the MBMMs had completely differentiated into macrophages that were ready for downstream experimental applications.
(§2) Cell Treatments. SPH (average molecular weight of about 1100 Daltons) and oligopeptides were dissolved in sterile water to obtain […] stock solutions. The SPH and oligopeptides were further diluted in cell culture media to reach final concentrations of 160 μM SPH and 10 μM oligopeptide per Petri dish.
(§3) Murine macrophages were incubated with SPH or an oligopeptide in the presence or absence of an iron-nitrilotriacetate solution (Fe-NTA; FeCl3 (100 μM)-NTA (400 μM)) for 8 h at 37° C. to increase cellular iron concentration. Murine macrophages were also incubated with SPH or an oligopeptide in the presence or absence of desferrioxamine mesylate (DFO; 100 μM) for 16 h at 37° C. to decrease cellular iron concentration. Commercial collagen peptide (Vital Protein) at a 10 μM concentration and sterile water were used as negative controls.
Quantification of H-Ferritin. Macrophages were washed with cold saline and lysed with 400 μl of a solution containing 50 mM HEPES (Gibco), 1% IGEPAL C-630 (Sigma), and 1% proteases inhibitor cocktail P840 (Sigma). H-Ferritin concentrations in the lysates were determined by ELISA using polyclonal antibodies raised against mouse recombinant H-ferritin subunits and calibrated with the corresponding recombinant homopolymers. The specificity and the absence of cross-reactivity of the antibodies are documented. The results were expressed as (ng ferritin) per (mg total protein) in the cell lysate and shown as an average of triplicate readings in Table 8-1. Total protein content was measured using the BCA protein assay kit (Pierce).
On the technique in general: An ELISA detects its analyte on a solid surface through an enzyme-linked reagent.

Assay [2] has as its system FTH1. Briefly: FTH1 mRNA levels in mouse bone marrow-derived macrophages (qPCR). The note with it: murine macrophages; for FTH1 Levels, Fe-Normal / FTH1 Levels, DFO (−Fe) / FTH1 Levels, Fe-NTA (+Fe): SPH 160 μM or oligopeptide 10 μM; for FTH1 Levels, Fe-Normal: normal iron, normalized to Hprt1, relative to control samples; for FTH1 Levels, DFO (−Fe): with DFO 100 μM 16 h; for FTH1 Levels, DFO (−Fe) / FTH1 Levels, Fe-NTA (+Fe): relative to control samples; for FTH1 Levels, Fe-NTA (+Fe): with Fe-NTA 8 h; for FTH1 mRNA expression: normal and iron-depleted conditions. As to the method: as §1, §2, §3
Measurement of Gene Expression. Total RNA was extracted from macrophages using the Qiagen miRNeasy Mini Kit for purification of total RNA from animal and human cells and tissues according to the manufacturer's instructions. About 2 μg of total RNA was transcribed into cDNA, after RT2 RNA QC PCR Array was run to confirm the quality of the RNA samples followed by gene expression analysis using RT2 Profiler PCR array.
The primers used for amplification of cDNA were: […]
All reactions were performed in a total reaction volume of 20 μl with iQ™ SYBR® Green Supermix (Bio-Rad) and carried out in the iQ™5 instrument (Bio-Rad). Baseline thresholds were calculated by Bio-Rad iQ5 program, and the threshold cycles (Ct) were used, wherein Ct values for the Fth1 gene were normalized to expression levels of Hprt1 (housekeeping) gene. Results are shown in Table 8-2 as n-fold difference relative to the control samples.
Background: In qPCR the cycle at which signal appears reflects the starting amount.

On to `CSCC[C@H](NC(=O)[C@@H]1CCCN1C(=O)[C@H](CCCCN)NC(=O)[C@H](CC(=O)O)NC(=O)[C@H](CO)NC(=O)[C@H](CCC(=O)O)NC(=O)[C@H](CCC(=O)O)NC(=O)[C@@H](N)CCCNC(=N)N)C(=O)N[C@@H](Cc1ccc(O)cc1)C(=O)O` [FT-006, REESDKPMY] (H-REESDKPMY-OH), for which, in the assay on FTH1 [1], the “FTH1 Fold Change at 0.625 μM” value is 1.3 fold, the “FTH1 Fold Change at 1.25 μM” value is 2.2 fold, the “FTH1 Fold Change at 2.5 μM” value is recorded as 3.5 fold and the “FTH1 Fold Change at 5 μM” value came out at 4.2 fold. Besides, in the assay on FTH1 [1], the “FTH1 Fold Change at 10 μM” value came out at 4.9 fold; the “FTH1 Fold Change, Average” value stood at 4.7 fold; the “FTH1 Fold Change (individual runs)” value is 4.5 fold and 4.7 fold and 4.9 fold. Moreover, in the assay with H-Ferritin, the “H-Ferritin Protein Levels, Fe-Normal” value was 174 ng/mg total protein; the “H-Ferritin Protein Levels, DFO (−Fe)” value is listed as 105 ng/mg total protein; the “H-Ferritin Protein Levels, Fe-NTA (+Fe)” value is listed as 257 ng/mg total protein; the “intracellular H-Ferritin protein levels” value was “substantial increases”. Moreover, in the assay on FTH1 [2], the “FTH1 Levels, Fe-Normal” value was found to be 2.7 n-fold; the “FTH1 Levels, DFO (−Fe)” value stood at 3.3 n-fold; the “FTH1 Levels, Fe-NTA (+Fe)” value is 2.8 n-fold; the “FTH1 mRNA expression” value was “substantial increases”.
As for `N=C(N)NCCC[C@H](NC(=O)[C@@H]1CCCN1)C(=O)N[C@@H](CCC(=O)O)C(=O)N[C@@H](CCC(=O)O)C(=O)N[C@@H](CO)C(=O)N[C@@H](CC(=O)O)C(=O)N[C@@H](CCCCN)C(=O)N1CCC[C@H]1C(=O)O` [FT-007, PREESDKP] (H-PREESDKP-OH), in the assay on FTH1 [1], the “FTH1 Fold Change at 0.625 μM” value is recorded as 1.1 fold, the “FTH1 Fold Change at 1.25 μM” value is 1.0 fold, the “FTH1 Fold Change at 2.5 μM” value is 1.1 fold and the “FTH1 Fold Change at 5 μM” value worked out at 1.9 fold. In addition, in the assay with FTH1 [1], the “FTH1 Fold Change at 10 μM” value amounted to 2.8 fold; the “FTH1 Fold Change, Average” value stood at 2.6 fold; the “FTH1 Fold Change (individual runs)” value was 2.5 fold and 2.6 fold (2×). In the assay with H-Ferritin, the “H-Ferritin Protein Levels, Fe-Normal” value is 142 ng/mg total protein; the “H-Ferritin Protein Levels, DFO (−Fe)” value came out at 111 ng/mg total protein; the “H-Ferritin Protein Levels, Fe-NTA (+Fe)” value came to 197 ng/mg total protein; the “intracellular H-Ferritin protein levels” value is recorded as “substantial increases”. In addition, in the assay with FTH1 [2], the “FTH1 Levels, Fe-Normal” value is listed as 1.9 n-fold; the “FTH1 Levels, DFO (−Fe)” value turned out to be 3.1 n-fold; the “FTH1 Levels, Fe-NTA (+Fe)” value is 2.9 n-fold; the “FTH1 mRNA expression” value is “substantial increases”.
`CC(C)C[C@H](NC(=O)[C@H](CCC(=O)O)NC(=O)CNC(=O)[C@H](CO)NC(=O)[C@H](CCC(=O)O)NC(=O)[C@H](CCC(=O)O)NC(=O)[C@@H](N)CCCNC(=N)N)C(=O)O` [FT-008, REESGEL] (H-REESGEL-OH): in the assay with FTH1 [1], the “FTH1 Fold Change at 0.625 μM” value worked out at 1.1 fold, the “FTH1 Fold Change at 1.25 μM” value is on record as 1.0 fold, the “FTH1 Fold Change at 2.5 μM” value was 2.1 fold and the “FTH1 Fold Change at 5 μM” value was found to be 2.7 fold. Also, in the assay on FTH1 [1], the “FTH1 Fold Change at 10 μM” value came out at 3.8 fold; the “FTH1 Fold Change, Average” value was found to be 3.6 fold; the “FTH1 Fold Change (individual runs)” value was 3.9 fold and 3.3 fold and 3.7 fold. In addition, in the assay on H-Ferritin, the “H-Ferritin Protein Levels, Fe-Normal” value came out at 158 ng/mg total protein; the “H-Ferritin Protein Levels, DFO (−Fe)” value was found to be 122 ng/mg total protein; the “H-Ferritin Protein Levels, Fe-NTA (+Fe)” value is 200 ng/mg total protein; the “intracellular H-Ferritin protein levels” value is reported as “substantial increases”. Besides, in the assay with FTH1 [2], the “FTH1 Levels, Fe-Normal” value was 2.5 n-fold; the “FTH1 Levels, DFO (−Fe)” value was found to be 3.4 n-fold; the “FTH1 Levels, Fe-NTA (+Fe)” value was 2.7 n-fold; the “FTH1 mRNA expression” value is listed as “substantial increases”.
